“Also recorded” adds a separate entry of the source.
Legend:
Format in all cases: cell-based, human
[1] = test system: ERK and AKT in DLD-1-KO cells; assay: Western blot of AKT and ERK activation in serum-starved DLD-1-KO cells; settings: DLD-1-KO serum-starved cells, 100 μM
Excerpt: DLD-1 (KRASWT/G13D) (clone V15, #HD PAR-086) colorectal adenocarcinoma cell line and DLD-1 knockout of mutant KRAS allele, DLD-1 KO (KRASWT/−) (clone DWT7, #HD105-002), were obtained from Horizon Discovery Ltd. (Cambridge, UK). hTERT-RPE (KRASWT/WT) immortalized retinal pigment epithelial human cell line was obtained from the […] (ATCC). DLD-1 KO cells stably expressing HA-KRAS G12V were previously generated in our laboratory (Cabot et al., 2021). All cells were grown in DMEM-HAM s F12 (1:1) supplemented with 10% foetal bovine serum (Biological Industries, Israel), penicillin, streptomycin, and nonessential amino acids. […]
For analysis of RAS signalling, cells were lysed in a buffer containing 67 mM Tris-HCl pH 6.8 and 2% SDS and then the samples were heated at 97° C. for 15 minutes. Protein concentration of the lysates was assessed using the Lowry method. […]
Comparison of Ras signaling between DLD-1, DLD-1-KO and hTERT-RPE cells treated with P14B since important differences were observed between the viability of cells treated with P14B depending on their expression or lack of expression of oncogenic KRAS, we further studied whether these discrepancies were reflected also in KRAS downstream signaling. Serum-starved cells (0.1% FCS) were treated with P14B (100 μM) and activation of AKT and ERK was evaluated by WB. […]

DLD-1 cells [2] = assay: MTS cell viability assay, DLD-1
Excerpt: DLD-1 (KRASWT/G13D) (clone V15, #HD PAR-086) colorectal adenocarcinoma cell line and DLD-1 knockout of mutant KRAS allele, DLD-1 KO (KRASWT/−) (clone DWT7, #HD105-002), were obtained from Horizon Discovery Ltd. (Cambridge, UK). hTERT-RPE (KRASWT/WT) immortalized retinal pigment epithelial human cell line was obtained from the […] (ATCC). DLD-1 KO cells stably expressing HA-KRAS G12V were previously generated in our laboratory (Cabot et al., 2021). All cells were grown in DMEM-HAM s F12 (1:1) supplemented with 10% foetal bovine serum (Biological Industries, Israel), penicillin, streptomycin, and nonessential amino acids. Cells were tested once per month for mycoplasma contamination.
MTS viability assay (CellTiter 96® Aqueous One Solution Cell Proliferation Assay, Promega G3580) was assessed following the company conditions. The absorbance of each well was measured with a multimode plate reader (Spark, Tecan) at 490 nm. The percentage of cell viability was calculated by dividing the absorbance of each well by the average absorbance of the control wells.
(§1) Since both inhibition and sustained activation of RAS signaling are related to a decrease in cell survival, we analyzed the viability of the CRC cell lines DLD-1 (expressing oncogenic KRAS) and DLD-1-KO (oncogenic KRAS allele deleted), and the non-transformed cell line hTERT-RPE. […] At the IC50 of approximately 80 μM for DLD-1 cells, the viability of DLD-1-KO and of non-transformed cells was not affected (FIG. 6A). […] The effect of P14B in DLD-1 cells cultured in 3D conditions was also determined. […] Consequently, we conclude that P14B selectively reduces the viability of CRC cells expressing oncogenic KRAS, causing minor effects if these cells have been knocked out for oncogenic KRAS or in non-transformed cells. Thereby, P14B might be considered as an inducer of apoptosis in CRC with oncogenic KRAS.
[…] Each point corresponds to n=6. The concentration (μM) indicated in the graph is the one in the final 100 μL volume). **** p<0.0001 (t-student test).

DLD-1 cells [3] = assay: 3D on-top Matrigel assay
Protocol: FIG. 6B is a series of images of cells. In total 2.5×10^4 DLD-1 cells were cultured on top of a thin basement membrane matrix (Matrigel) overlaid with a dilute solution of this basement membrane matrix (3D on-top Matrigel assay). At the time of seeding or 24 h later, cells were treated with P14B ([…] after seeding the colonies that had formed were analysed. Representative phase-contrast images are shown. All scale bars, […]
3D on-top Matrigel assay was performed as described in (Cabot et al., 2021).
as §1

DLD-1 cells [4] = assay: Cleaved caspase-3 Western blot, DLD-1; settings: DLD-1 cells treated 34 h or 48 h
Protocol: (§2) FIG. 6C is a blot showing extracts of DLD-1, DLD-1-KO and RPE cells at 34 h. and 48 h. DLD-1 cells treated with P14B for 36 h and 48 h were lysed and the expression of the apoptosis marker cleaved caspase-3 was analyzed by Western blot. Cells treated with the apoptosis inducer palmitic acid (PA) were used as a positive control.
(§3) Proteins were resolved by SDS-PAGE, transferred onto PVDF membranes (Immobilon-P, Millipore) and Western blot was performed as previously described (Cabot et al, Oncogene 2021). […]
(§4) Since both inhibition and sustained activation of RAS signaling are related to a decrease in cell survival, we analyzed the viability of the CRC cell lines DLD-1 (expressing oncogenic KRAS) and DLD-1-KO (oncogenic KRAS allele deleted), and the non-transformed cell line hTERT-RPE. […] The effect of P14B in DLD-1 cells cultured in 3D conditions was also determined. […]

DLD-1-KO cells = assay: Cleaved caspase-3 Western blot, DLD-1-KO; settings: DLD-1-KO cells treated 34 h or 48 h
Protocol: as §2, §3, §4

hTERT-RPE cells = assay: Cleaved caspase-3 Western blot, hTERT-RPE; settings: hTERT-RPE cells treated 34 h or 48 h
Protocol: as §2, §3, §4

SMILES: COc1ccc(C(c2c(C)n[nH]c2O)c2c(C)n[nH]c2O)cc1Oc1ccc([N+](=O)[O-])cc1 [Example P14B]
- AKT and ERK activation [1]: AKT and ERK activation by P14B was also observed
- levels of ERK phosphorylation compared with 10% FBS treatment [1]: significantly lower
- maxim cell viability reduction compared with Erlotinib (DLD-1 cells [2]; DLD-1, 5000 cells, 48 h treatment): significantly higher
- IC50 (DLD-1 cells [2]; DLD-1 cells, dose-response 0 to 100 μM, 24 hours): ~80 µM
- cell viability (DLD-1 cells [2]; DLD-1 cells, specifically at 75 μM and 100 μM): significantly reduced the cell viability; also recorded: decreases the viability
- size of the colonies in Matrigel (DLD-1 cells [3]; P14B added 24 h after seeding, 40 μM): clear reduction in the size of the colonies
- capacity to form colonies in Matrigel (DLD-1 cells [3]; P14B added when seeding the cells, 10 μM): drastic reduction in the capacity to form colonies
- cleaved caspase-3 expression (DLD-1 cells [4]): only detected in DLD-1-treated cells
- cleaved caspase-3 expression (DLD-1-KO cells): undetectable
- cleaved caspase-3 expression (hTERT-RPE cells): undetectable

From patent publication US20260217656A1, “Compounds Affecting KRAS” (UNIVERSITAT DE BARCELONA, priority 2022, published 2026)
